assay: gradient 5% acetonitrile 3 min, to 50% in 2 min, to 85% in 15 min, held 3 min, 100 µL/min; details: column: Zorbax Extend-C18 2.1 x 50 mm; eluents: water / acetonitrile, 0.1% formic acid
In short: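 Retention time was recorded from adduct peaks, which were picked computationally and each inspected manually. Pure standards ran in mixtures of ~100 molecules on HPLC coupled to a quadrupole time-of-flight mass spectrometer, in positive and negative ionization mode, through a Zorbax Extend-C18 column (2.1 × 50 mm, 1.8 μm) at 100 μL/min. Eluents were water and acetonitrile, each with 0.1% formic acid.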

In order of rising RP-LC retention time:
1. COC[C@@H]1CN(c2cnccn2)C[C@H]1C(=O)NCCn1ccnc1  498 s
2. Cc1nc(-c2cccnc2)nc2c1CCC(=O)N2Cc1cccnc1  560 s
3. COc1ccc(CCS(=O)(=O)NCC2CCN(Cc3cccs3)CC2)cc1  564 s
4. CC(C)n1cnc2ccc(-c3noc(CSc4ccncc4)n3)cc21  565 s
5. COc1ccc(OC)c(C(O)CN2CCC(c3nc(C)no3)CC2)c1 (configuration not stated)  574 s
6. CC1CCCN(C(=O)C2CCN(CCc3c[nH]c4ncccc34)CC2)C1 (configuration not stated)  586 s
7. Cc1cc(-c2nnc(-c3ccccc3)o2)c(C)n1CC(=O)Nc1ccc2c(c1)OCO2  596 s
8. O=C([C@@H]1C[C@H](Oc2cccnc2)CN1C(=O)CC1CCCC1)N1CCCC1  600 s
9. Cc1ccccc1NC(=O)N1CCN(c2nc(N3CCOCC3)nc(-n3ccnc3)n2)CC1  603 s
10. CC(C)n1c(CN2CCCC2)nc2cc(NC(=O)c3ccco3)ccc21  610 s
11. COc1ccc(CNC(=O)Cc2cn(C)c3ncccc23)cc1OC  616 s
12. Cn1cnnc1C1CCCCN1C(=O)c1ccc2c(c1)OCO2 (configuration not stated)  618 s
13. CC1=CC(=C2C=CC(=O)C=C2)C=C(C)N1C  620 s
14. CCc1cc(=O)n(CC(=O)N(CC)Cc2ccccc2)c(N)n1  639 s
15. O=C([C@@H]1C[C@H](Oc2cccnc2)CN1C(=O)CCC1CCCC1)N1CCCC1  640 s
16. O=C(NCC1CCS(=O)(=O)C1)c1cc(-c2ccc(F)cc2)n[nH]1 (configuration not stated)  643 s
17. CNC(=O)c1ccc(-n2cccc2)nc1  645 s
18. CCC(C)NC(=O)N1CCN(c2cc(-c3cccc(F)c3)ncn2)CC1 (configuration not stated)  650 s
19. CC1CCCN(Cc2nc(Cn3ccn4nc(-c5ccccc5)cc4c3=O)no2)C1 (configuration not stated)  654 s
20. Cn1nc(C(=O)N2CCOCC2)c2c1CCN(C(=O)Nc1ccccc1)C2  658 s
21. CCN1CCN(C(=O)C2CCCN(S(=O)(=O)c3ccc4c(ccn4CC)c3)C2)CC1 (configuration not stated)  660 s
22. CN(C)C(CNC(=O)c1cc(-c2ccccc2)on1)c1cccs1 (configuration not stated)  663 s
23. COc1cccc(C(O)CN2CCN(c3cccc(C)c3)CC2)c1 (configuration not stated)  663 s
24. CN(C)c1ccc(NC(=O)c2cn(-c3ccc(F)cc3)nn2)cc1  675 s
25. CN1CCC2(CC1)N=C(c1ccc(Br)cc1)CC(c1cc(Cl)ccc1O)N2 (configuration not stated)  675 s
26. CN(CCCNC(=O)CN1C(=O)CSc2cccn2-c2ccccc21)Cc1ccccc1  677 s
27. CC1CN=C2C(N3CCN(C(=O)c4ccc(C#N)cc4)CC3)=NC=CN21 (configuration not stated)  678 s
28. CCN(CC)C(=O)N[C@H]1C[C@@H]2c3cccc4[nH]cc(c34)C[C@H]2N(C)C1  679 s
29. CCOCCCNC(=O)C1CCN(c2cnn(Cc3ccccc3)c(=O)c2)CC1  679 s
30. Cc1ccc(NC(=O)N2CCCC(Cn3cnc4cccnc43)C2)c(Cl)c1 (configuration not stated)  682 s
31. Cc1ccc(-c2nc(-c3ccc4c(c3)ncn4CCN3CCOCC3)no2)cc1C  685 s
32. CCc1ccc(-c2nc(-c3ccc4c(c3)ncn4CCN3CCOCC3)no2)cc1  685 s
33. CCNC(=O)N1CC(Oc2ccc(-c3nc(C)no3)cc2)C1  688 s
34. COc1ccc(-c2nnc(SCc3cc(=O)n4ccsc4n3)o2)cc1OC  700 s
35. CCc1ccc2ncc(C#N)c(N3CCC(C(=O)NCc4ccc(F)cc4)CC3)c2c1  710 s
36. CCOc1ccc(NC(=O)Cc2nnc(-c3ccc4ncccc4c3)o2)cc1  718 s
37. CC1CCN(C(CNC(=O)c2cc(-c3ccc4c(c3)OCCO4)on2)c2ccco2)CC1 (configuration not stated)  720 s
38. CSc1ccc(CCNC(=O)c2nc(N3CCOCC3)c3ccccc3n2)cc1  721 s
39. Cc1ccc(C)c(CNC(=O)C2CCCN(c3cnn(C)c(=O)c3)C2)c1 (configuration not stated)  723 s
40. Cc1[nH]c(C)c(S(=O)(=O)N2CCC(C(=O)N3CCCCC3C)CC2)c1C(=O)N1CCCCC1 (configuration not stated)  724 s
41. O=C(O)c1cccnc1SC1CC(=O)N(c2ccc(F)c(Cl)c2)C1=O (configuration not stated)  741 s
42. COc1cc([C@@H]2c3cc4c(cc3[C@H](O)[C@@H](CO)[C@@H]2C(=O)Nc2cccc(F)c2)OCO4)cc(OC)c1OC  761 s
43. COCC(=O)NC(Cc1ccccc1)c1nc2ccccc2n1Cc1ccccc1F (configuration not stated)  769 s
44. CC1(C(=O)NCc2ccc(F)cc2)Cn2cnc(C(=O)NCc3ccc(F)cc3)c2C(=O)N1C1CC1 (configuration not stated)  777 s
45. CCOCCCNC(=O)C(C)Sc1ccc(=O)n(-c2ccc(C)c(Cl)c2)n1 (configuration not stated)  797 s
46. COc1ccc(OCc2noc(CNC(=O)c3cc(C)oc3C)n2)cc1  817 s
47. O=C(NCC(c1ccco1)N1CCOCC1)c1cc(-c2ccc3c(c2)CCCC3)on1 (configuration not stated)  827 s
48. COC(=O)c1ccccc1NC(=O)c1cc(N2C(=O)CCS2(=O)=O)ccc1Cl  840 s
49. Cc1nc2c(sc3cccc(F)c32)c(=O)n1CC(=O)Nc1ccccc1C(F)(F)F  841 s
50. CC1CCCN(C(=O)c2ccc3c(c2)Sc2ncccc2C(=O)N3C(C)C)C1 (configuration not stated)  850 s
51. Cc1oc(C2CCN(S(=O)(=O)c3cccs3)CC2)nc1C(=O)N1CCCC1  856 s
52. Cc1cccc2c1NC(=O)C2(O)CC(=O)c1ccc(C(C)C)cc1 (configuration not stated)  860 s
53. COc1cccc(CNC(=O)Cn2c(-c3ccc(F)cc3)ncc(C#N)c2=O)c1  873 s
54. CC(Cc1ccco1)NC(=O)CN1C(=O)C2CCCCN2c2ccc(S(=O)(=O)N(C)C)cc21 (configuration not stated)  879 s
55. O=C1CCC(CCNS(=O)(=O)c2cc(Cl)ccc2Cl)CCN1CC1CC1 (configuration not stated)  897 s
56. O=C(Cc1csc(-c2ccccc2F)n1)NCCc1c[nH]c2ccc(F)cc12  908 s
57. Cc1ccc(C)c(NC(=O)Cn2c(=O)cc(-c3nc(C)no3)c3ccccc32)c1  910 s
58. Cc1cc(C)cc(N2CCC(NC(=O)c3sccc3C)C2=O)c1 (configuration not stated)  916 s
59. Cc1ccc(C)c(-c2cc3c(=O)n(Cc4noc(-c5ccccn5)n4)ccn3n2)c1  923 s
60. COc1cc(Cl)ccc1C(=O)N1C[C@@H]2C[C@H]1C[C@@H]2NC(=O)c1ccccc1  939 s
61. O=C(Cn1nc(C(=O)N2CCCC2)c2ccccc21)N1CCN(c2cccc(Cl)c2)CC1  942 s
62. CCc1nc(OCC(=O)NCc2cccc(F)c2)c2c(C)c(C)oc2n1  942 s
63. COc1ccc(N2CC(c3noc(-c4cccc(Cl)c4)n3)CC2=O)cc1OC (configuration not stated)  944 s
64. Cc1ccc(CNC(=O)C2(C)CCN(S(=O)(=O)c3ccc(F)cc3)CC2)cc1  965 s
65. COc1ccc(CNC(=O)c2c(C)sc3ccn(Cc4ccc(F)cc4)c(=O)c23)cc1  974 s
66. COc1ccc(N2C(=O)C3N=NN(Cc4nc(-c5ccccc5C)no4)C3C2=O)cc1 (configuration not stated)  976 s
67. CCn1cc(-c2nc(C)c(C(=O)Nc3ccccc3C)s2)c2cccnc21  980 s
68. Cc1nc2c(sc3nc(-c4ccccc4)ccc32)c(=O)n1CC(=O)Nc1ccc2c(c1)OCO2  985 s
69. COc1ccc(S(=O)(=O)N2CCCC(C(=O)Nc3ccccc3F)C2)cc1Cl (configuration not stated)  985 s
70. CCCOc1ccc(S(=O)(=O)n2cccn2)cc1C  986 s
71. CC(C)Cn1c(=O)c2ccccc2n(Cc2nc(-c3ccccc3)no2)c1=O  1040 s
72. CC(C)c1ccc(N2C=C(C#N)S(=O)(=O)c3ccccc32)cc1  1040 s
73. Cc1ccccc1-c1cc2c(=O)n(Cc3nc(-c4ccc5c(c4)OCO5)no3)ccn2n1  1050 s
74. Cc1ccc(CN(Cc2ccc(-c3ccccc3S(=O)(=O)NC#N)cc2)C(=O)c2ccccc2Cl)cc1  1060 s
75. CCCS(=O)(=O)c1nc2ccc(NS(=O)(=O)c3ccc4c(c3)CCCC4)cc2s1  1060 s
76. Cc1cccc(-c2noc(Cc3nnc(-c4ccc(F)cc4)o3)n2)c1  1070 s
77. Cc1cc(C)c(S(=O)(=O)N2CCc3c(c(-c4nnc(-c5ccccc5)o4)nn3C)C2)cc1C  1070 s
78. Cc1cc(C)cc(NC(=O)Cn2cnc3c(sc4nc(-c5ccccc5)ccc43)c2=O)c1  1100 s
79. CCCCN1C(=O)NC(c2ccccc2)C(c2nc(-c3ccccc3)no2)=C1C (configuration not stated)  1130 s
80. CCn1c(=O)n(CC(=O)NCCC2=CCCCC2)c(=O)c2cnc(-c3ccccc3)nc21  1130 s
81. CC(=O)Nc1ccc(-c2nc(-c3cccc(-c4ccnn4C)c3)no2)cc1  1140 s
82. Cc1ccc(-c2noc(C3CCCN3C(=O)C(NS(=O)(=O)c3ccc(C)cc3)C(C)C)n2)cc1 (configuration not stated)  1150 s
83. O=C(Nc1ccc(-c2nc(-c3ccc(F)cc3)no2)cc1)c1cccs1  1170 s
84. CC(C)Oc1ccc(-c2noc(CN3N=NC4C(=O)N(c5ccc(C(C)C)cc5)C(=O)C43)n2)cc1 (configuration not stated)  1180 s
85. O=C1C(Cl)=C(NCCc2ccccc2)C(=O)c2ccccc21  1190 s
86. Cc1nc(-c2cc(S(=O)(=O)N3CCCc4ccccc43)c(C)s2)sc1C  1290 s
87. Cc1cc(OCc2nc(C)c(C(=O)Nc3nc(-c4ccccc4)cs3)s2)ccc1Cl  1330 s
